Laboratory results from patent US6914045B2, “Glycopeptide antibiotics” (Wyeth Holdings Corporation, priority 2001, dated 2005).
In brackets after ≈: the same amount, converted by molar mass.

Columns and labels:
Experiment in all cases: in vitro antibacterial evaluation, MIC by broth dilution
Type in all cases: cell-based
Enterococcus sp. = conditions: broth dilution, 18 hours at 35° C.
Procedure: (§1) Methods for in vitro Antibacterial Evaluation (Table 1)
(§2) The minimum inhibitory concentration (MIC), the lowest concentration of the antibiotic which inhibits growth of the test organism, is determined by the broth dilution method using Muller-Hinton II […] (Baltimore Biological Laboratories) following the recommendations of the National Committee for Clinical Laboratory Standards [Methods for dilution antimicrobial susceptibility tests for bacteria that grow aerobically, approved standard M7-A2, National Committee for Clinical Laboratory Standards, Villanova, Pa.].
(§3) An inoculum level of 5×10^5 CFU/mL, and a range of antibiotic concentrations (64-0.06 μg/mL) is used. […] The test organisms include a spectrum of Gram-positive bacteria comprised of Staphylococcus sp., Streptococcus sp. and Enterococcus sp. These organisms include recent clinical isolates that are resistant to methicillin, penicillin and/or vancomycin.

Staphylococcus sp. = conditions: broth dilution, 18 hours at 35° C.; for MIC Staphylococcus aureus (ATCC 29213): strain ATCC 29213; for MIC Staphylococcus aureus (GC 1131): strain GC 1131; for MIC Staphylococcus aureus (GC 3051): strain GC 3051; for MIC Staphylococcus aureus (GC 3053): strain GC 3053; for MIC Staphylococcus aureus (GC 4541): strain GC 4541; for MIC Staphylococcus aureus (GC 4542): strain GC 4542; for MIC Staphylococcus aureus-SMITH (GC 4543): strain GC 4543; for MIC Staphylococcus aureus (GC 4544): strain GC 4544; for MIC Staphylococcus aureus (GC 4545): strain GC 4545; for MIC Staphylococcus haemolyticus (GC 4546): strain GC 4546; for MIC Coagulase Negative Staphylococcus (GC 4547): strain GC 4547; for MIC Coagulase Negative Staphylococcus (GC 4548): strain GC 4548; for MIC Coagulase Negative Staphylococcus (GC 4549): strain GC 4549; for MIC Coagulase Negative Staphylococcus (GC 4551): strain GC 4551
Procedure: as §1, §2, §3

Streptococcus sp. = conditions: broth dilution, 18 hours at 35° C.
Procedure: as §1, §2, §3

Escherichia coli = conditions: 18 hours at 35° C.
Procedure, shortened: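 Broth dilution in Muller-Hinton II medium per NCCLS standard M7-A2, with an inoculum of 5×10^5 CFU/mL and antibiotic tested over 64-0.06 μg/mL. MIC was taken as the lowest concentration inhibiting visible growth.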

## CC(C)=CCCC(C)=CCN=C1NCC(C(O)C2NC(=O)C(C(O)C3CNC(=N)N3)NC(=O)C(Cc3ccc(OC4OC(CO)C(OC5OC6COC7(OC6C(O)C5O)C5CC6CC(C5)CC7C6)C(O)C4O)cc3)NC(=O)C(C(C)c3ccccc3)NC(=O)CNC(=O)C(CO)NC2=O)N1C1OC(CO)C(O)C(O)C1O (stereo not shown) [Example 82]
Enterococcus sp.; Enterococcus avium (GC 4558)
  MIC Enterococcus avium (GC 4558): 4 µg/mL (≈ 2.56 µM)
Enterococcus sp.; Enterococcus faecalis (ATCC 29212)
  MIC Enterococcus faecalis (ATCC 29212): 16 µg/mL (≈ 10.2 µM)
Enterococcus sp.; Enterococcus faecalis (GC 4552)
  MIC Enterococcus faecalis (GC 4552): 16 µg/mL (≈ 10.2 µM)
Enterococcus sp.; Enterococcus faecalis (GC 4553)
  MIC Enterococcus faecalis (GC 4553): 8 µg/mL (≈ 5.12 µM)
Enterococcus sp.; Enterococcus faecalis (GC 4554)
  MIC Enterococcus faecalis (GC 4554): 32 µg/mL (≈ 20.5 µM)
Enterococcus sp.; Enterococcus faecalis (GC 6189)
  MIC Enterococcus faecalis (GC 6189): 16 µg/mL (≈ 10.2 µM)
Enterococcus sp.; Enterococcus faecium (GC 2243)
  MIC Enterococcus faecium (GC 2243): 8 µg/mL (≈ 5.12 µM)
Enterococcus sp.; Enterococcus faecium (GC 4556)
  MIC Enterococcus faecium (GC 4556): 16 µg/mL (≈ 10.2 µM)
Enterococcus sp.; Enterococcus faecium (GC 4557)
  MIC Enterococcus faecium (GC 4557): 2 µg/mL (≈ 1.28 µM)
Enterococcus sp.
  MIC Enterococcus avium (GC 4558): 4 µg/mL (≈ 2.56 µM)
  MIC Enterococcus faecalis (ATCC 29212): 16 µg/mL (≈ 10.2 µM)
  MIC Enterococcus faecalis (GC 2242): 16 µg/mL (≈ 10.2 µM)
  MIC Enterococcus faecalis (GC 2691): 16 µg/mL (≈ 10.2 µM)
  MIC Enterococcus faecalis (GC 3059): 16 µg/mL (≈ 10.2 µM)
  MIC Enterococcus faecalis (GC 4552): 16 µg/mL (≈ 10.2 µM)
  MIC Enterococcus faecalis (GC 4553): 8 µg/mL (≈ 5.12 µM)
  MIC Enterococcus faecalis (GC 4554): 32 µg/mL (≈ 20.5 µM)
  MIC Enterococcus faecalis (GC 6189): 16 µg/mL (≈ 10.2 µM)
  MIC Enterococcus faecium (GC 2243): 8 µg/mL (≈ 5.12 µM)
  MIC Enterococcus faecium (GC 4556): 16 µg/mL (≈ 10.2 µM)
  MIC Enterococcus faecium (GC 4557): 2 µg/mL (≈ 1.28 µM)
Enterococcus sp.; strain GC 2242
  MIC Enterococcus faecalis (GC 2242): 16 µg/mL (≈ 10.2 µM)
Enterococcus sp.; strain GC 2691
  MIC Enterococcus faecalis (GC 2691): 16 µg/mL (≈ 10.2 µM)
Enterococcus sp.; strain GC 3059
  MIC Enterococcus faecalis (GC 3059): 16 µg/mL (≈ 10.2 µM)
Staphylococcus sp.
  MIC Staphylococcus aureus (ATCC 29213): 8 µg/mL (≈ 5.12 µM)
  MIC Staphylococcus aureus (GC 1131): 16 µg/mL (≈ 10.2 µM)
  MIC Staphylococcus aureus (GC 3051): 8 µg/mL (≈ 5.12 µM)
  MIC Staphylococcus aureus (GC 3053): 16 µg/mL (≈ 10.2 µM)
  MIC Staphylococcus aureus (GC 4541): 8 µg/mL (≈ 5.12 µM)
  MIC Staphylococcus aureus (GC 4542): 16 µg/mL (≈ 10.2 µM)
  MIC Staphylococcus aureus-SMITH (GC 4543): 8 µg/mL (≈ 5.12 µM)
  MIC Staphylococcus aureus (GC 4544): 16 µg/mL (≈ 10.2 µM)
  MIC Staphylococcus aureus (GC 4545): 8 µg/mL (≈ 5.12 µM)
  MIC Staphylococcus haemolyticus (GC 4546): 4 µg/mL (≈ 2.56 µM)
  MIC Coagulase Negative Staphylococcus (GC 4547): 4 µg/mL (≈ 2.56 µM)
  MIC Coagulase Negative Staphylococcus (GC 4548): 4 µg/mL (≈ 2.56 µM)
  MIC Coagulase Negative Staphylococcus (GC 4549): 4 µg/mL (≈ 2.56 µM)
  MIC Coagulase Negative Staphylococcus (GC 4551): 8 µg/mL (≈ 5.12 µM)
Streptococcus sp.
  MIC Streptococcus agalactiae (GC 4564): 0.5 µg/mL (≈ 0.32 µM)
  MIC Streptococcus pneumoniae (ATCC 6301): 2 µg/mL (≈ 1.28 µM)
  MIC Streptococcus pneumoniae (GC 1894): 0.25 µg/mL (≈ 0.16 µM)
  MIC Streptococcus pneumoniae (GC 4565): 2 µg/mL (≈ 1.28 µM)
  MIC Streptococcus pyogenes (GC 4563): 1 µg/mL (≈ 0.64 µM)
Streptococcus sp.; strain ATCC 6301
  MIC Streptococcus pneumoniae (ATCC 6301): 2 µg/mL (≈ 1.28 µM)
Streptococcus sp.; strain GC 1894
  MIC Streptococcus pneumoniae (GC 1894): 0.25 µg/mL (≈ 0.16 µM)
Streptococcus sp.; strain GC 4563
  MIC Streptococcus pyogenes (GC 4563): 1 µg/mL (≈ 0.64 µM)
Streptococcus sp.; strain GC 4564
  MIC Streptococcus agalactiae (GC 4564): 0.5 µg/mL (≈ 0.32 µM)
Streptococcus sp.; strain GC 4565
  MIC Streptococcus pneumoniae (GC 4565): 2 µg/mL (≈ 1.28 µM)
Escherichia coli
  MIC Escherichia coli (ATCC 25922): >128 µg/mL
  MIC Escherichia coli (GC 4559): >128 µg/mL
  MIC Escherichia coli (GC 4560): 4 µg/mL (≈ 2.56 µM)

## CC(c1ccccc1)C1NC(=O)CNC(=O)C(CO)NC(=O)C(C(O)C2CNC(=N)N2C2OC(CO)C(O)C(O)C2O)NC(=O)C(C(O)C2CNC(=N)N2)NC(=O)C(Cc2ccc(OC3OC(CO)C(OC4OC5COC6(CCCCC6C)OC5C(O)C4O)C(O)C3O)cc2)NC1=O (stereo not shown) [Example 204]
Enterococcus sp.
  MIC Enterococcus avium (GC 4558): 16 µg/mL (≈ 11.5 µM)
  MIC Enterococcus faecalis (ATCC 29212): 16 µg/mL (≈ 11.5 µM)
  MIC Enterococcus faecalis (GC 2242): 16 µg/mL (≈ 11.5 µM)
  MIC Enterococcus faecalis (GC 2691): 16 µg/mL (≈ 11.5 µM)
  MIC Enterococcus faecalis (GC 3059): 16 µg/mL (≈ 11.5 µM)
  MIC Enterococcus faecalis (GC 4552): 16 µg/mL (≈ 11.5 µM)
  MIC Enterococcus faecalis (GC 4553): 16 µg/mL (≈ 11.5 µM)
  MIC Enterococcus faecalis (GC 4554): 16 µg/mL (≈ 11.5 µM)
  MIC Enterococcus faecalis (GC 6189): 16 µg/mL (≈ 11.5 µM)
  MIC Enterococcus faecium (GC 2243): 16 µg/mL (≈ 11.5 µM)
  MIC Enterococcus faecium (GC 4556): 16 µg/mL (≈ 11.5 µM)
  MIC Enterococcus faecium (GC 4557): 8 µg/mL (≈ 5.76 µM)
Enterococcus sp.; inoculum 5×10^5 CFU/mL, strain ATCC 29212
  MIC Enterococcus faecalis (ATCC 29212): 16 µg/mL (≈ 11.5 µM)
Enterococcus sp.; inoculum 5×10^5 CFU/mL, strain GC 2242
  MIC Enterococcus faecalis (GC 2242): 16 µg/mL (≈ 11.5 µM)
Enterococcus sp.; inoculum 5×10^5 CFU/mL, strain GC 2243
  MIC Enterococcus faecium (GC 2243): 16 µg/mL (≈ 11.5 µM)
Enterococcus sp.; inoculum 5×10^5 CFU/mL, strain GC 2691
  MIC Enterococcus faecalis (GC 2691): 16 µg/mL (≈ 11.5 µM)
Enterococcus sp.; inoculum 5×10^5 CFU/mL, strain GC 3059
  MIC Enterococcus faecalis (GC 3059): 16 µg/mL (≈ 11.5 µM)
Enterococcus sp.; inoculum 5×10^5 CFU/mL, strain GC 4552
  MIC Enterococcus faecalis (GC 4552): 16 µg/mL (≈ 11.5 µM)
Enterococcus sp.; inoculum 5×10^5 CFU/mL, strain GC 4553
  MIC Enterococcus faecalis (GC 4553): 16 µg/mL (≈ 11.5 µM)
Enterococcus sp.; inoculum 5×10^5 CFU/mL, strain GC 4554
  MIC Enterococcus faecalis (GC 4554): 16 µg/mL (≈ 11.5 µM)
Enterococcus sp.; inoculum 5×10^5 CFU/mL, strain GC 4556
  MIC Enterococcus faecium (GC 4556): 16 µg/mL (≈ 11.5 µM)
Enterococcus sp.; inoculum 5×10^5 CFU/mL, strain GC 4557
  MIC Enterococcus faecium (GC 4557): 8 µg/mL (≈ 5.76 µM)
Enterococcus sp.; inoculum 5×10^5 CFU/mL, strain GC 4558
  MIC Enterococcus avium (GC 4558): 16 µg/mL (≈ 11.5 µM)
Enterococcus sp.; inoculum 5×10^5 CFU/mL, strain GC 6189
  MIC Enterococcus faecalis (GC 6189): 16 µg/mL (≈ 11.5 µM)
Staphylococcus sp.; inoculum 5×10^5 CFU/mL
  MIC Staphylococcus aureus (GC 1131): 8 µg/mL (≈ 5.76 µM)
Staphylococcus sp.
  MIC Staphylococcus aureus (ATCC 29213): 4 µg/mL (≈ 2.88 µM)
  MIC Staphylococcus aureus (GC 1131): 8 µg/mL (≈ 5.76 µM)
  MIC Staphylococcus aureus (GC 3051): 4 µg/mL (≈ 2.88 µM)
  MIC Staphylococcus aureus (GC 3053): 8 µg/mL (≈ 5.76 µM)
  MIC Staphylococcus aureus (GC 4541): 4 µg/mL (≈ 2.88 µM)
  MIC Staphylococcus aureus (GC 4542): 4 µg/mL (≈ 2.88 µM)
  MIC Staphylococcus aureus-SMITH (GC 4543): 4 µg/mL (≈ 2.88 µM)
  MIC Staphylococcus aureus (GC 4544): 8 µg/mL (≈ 5.76 µM)
  MIC Staphylococcus aureus (GC 4545): 4 µg/mL (≈ 2.88 µM)
  MIC Staphylococcus haemolyticus (GC 4546): 2 µg/mL (≈ 1.44 µM)
  MIC Coagulase Negative Staphylococcus (GC 4547): 4 µg/mL (≈ 2.88 µM)
  MIC Coagulase Negative Staphylococcus (GC 4548): 4 µg/mL (≈ 2.88 µM)
  MIC Coagulase Negative Staphylococcus (GC 4549): 2 µg/mL (≈ 1.44 µM)
  MIC Coagulase Negative Staphylococcus (GC 4551): 4 µg/mL (≈ 2.88 µM)
Streptococcus sp.
  MIC Streptococcus agalactiae (GC 4564): 1 µg/mL (≈ 0.72 µM)
  MIC Streptococcus pneumoniae (ATCC 6301): 0.5 µg/mL (≈ 0.36 µM)
  MIC Streptococcus pneumoniae (GC 1894): 0.25 µg/mL (≈ 0.18 µM)
  MIC Streptococcus pneumoniae (GC 4565): 0.5 µg/mL (≈ 0.36 µM)
  MIC Streptococcus pyogenes (GC 4563): 0.5 µg/mL (≈ 0.36 µM)
Streptococcus sp.; inoculum 5×10^5 CFU/mL, strain ATCC 6301
  MIC Streptococcus pneumoniae (ATCC 6301): 0.5 µg/mL (≈ 0.36 µM)
Streptococcus sp.; inoculum 5×10^5 CFU/mL, strain GC 1894
  MIC Streptococcus pneumoniae (GC 1894): 0.25 µg/mL (≈ 0.18 µM)
Streptococcus sp.; inoculum 5×10^5 CFU/mL, strain GC 4563
  MIC Streptococcus pyogenes (GC 4563): 0.5 µg/mL (≈ 0.36 µM)
Streptococcus sp.; inoculum 5×10^5 CFU/mL, strain GC 4564
  MIC Streptococcus agalactiae (GC 4564): 1 µg/mL (≈ 0.72 µM)
Streptococcus sp.; inoculum 5×10^5 CFU/mL, strain GC 4565
  MIC Streptococcus pneumoniae (GC 4565): 0.5 µg/mL (≈ 0.36 µM)
Escherichia coli
  MIC Escherichia coli (ATCC 25922): 128 µg/mL (≈ 92.1 µM)
  MIC Escherichia coli (GC 4559): 128 µg/mL (≈ 92.1 µM)
  MIC Escherichia coli (GC 4560): 4 µg/mL (≈ 2.88 µM)
